How the values were obtained:
[1] = test system: granulation tissue in subcutaneously implanted wound chambers; assay: Rat wound chamber assay (granulation tissue formation); type: in vivo
Procedure: Male Sprague-Dawley specific pathogen free rats (300-350 g; Charles River Breeding Laboratories, Inc.) were used for this study. Rats were anesthetized with sodium pentobarbital (50 mg/kg body weight) by intraperitoneal injection. Using aseptic surgical technique, a 3 cm midline incision was made on the dorsal surface of the rat. A single pocket was formed under the panniculus carnosis by blunt dissection on one side of the animal. A 3 cm long×1 cm diameter sterile stainless steel wire mesh cylinder was then inserted subcutaneously. The wound chambers used were similar to those described by Schilling et. al. (Surgery 46, 702-710 (1959)) and utilized by Hunt et. al. (Am. J. Surg. 114, 302-307 (1967)) as wound healing models. The incision was closed with wound clips. The rats survived the operation well with no evidence of postoperative discomfort. Beginning 3 days after wound chamber implantation, the rats were randomly divided into 5 groups. At this time daily injections of 1) 10 μg CHO-derived EBP, 2) 1 μg CHO-derived EBP, 3) 8 μg E. coli derived EBP, 4) 5 μg recombinant platelet derived growth factor (PDGF), or 5) 0.1 ml sterile PBS and 1 mM CHAPS were begun and continued for a total of 9 days. The injections were made directly into the wound chamber through a silicone septum at the outer edge of the chamber. Twelve days after chamber implantation, the rats were sacrificed by CO2 asphyxiation. Immediately after sacrifice, the chambers were removed surgically and carefully opened. The enclosed granulation tissue was then weighed, and stored at -70° C. for future processing.
Granulation tissue samples were thawed and homogenized with a Polytron homogenizer in 2 ml of ice-cold distilled water for approximately 1 minute. Next, 2 ml of ice-cold 10% trichloroacetic acid was added to the homogenate and incubated at 4° C. for 1 hour. The TCA-precipitated samples were centrifuged (500 g, 10 minutes) at 4° C., washed once with 2 ml of ice-cold 5% TCA, and finally washed with 2 ml of ice-cold 95% ethanol containing 50 mM sodium acetate. Samples were defatted twice with 2 ml of ethanol:ether (3:1, v/v) at 20° C. After each defatting procedure, samples were centrifuged (500×g, 10 minutes) and the supernate discarded. The pellet was then dissolved in 1N sodium hydroxide and brought up to a volume of 10 ml.
Total protein was determined by taking an aliquot of the solubilized granulation tissue and assaying the sample according to the method of Bradford (Anal. Biochem. 72, 248-251 (1976)) Bovine serum albumin (Sigma Chemical Co., St. Louis, Mo.) was used for a protein standard curve.
Total DNA content was determined as deoxy-ribose by the colorimetric method of Burton (Biochem. J. 62, 315 (1956)). Briefly, a 1 ml aliquot of the solubilized sample (in 1N NaOH) was neutralized with the addition of 0.5 ml of 2N HCl. A 1 ml aliquot of the neutralized solution was extracted in 10% perchloric acid at 90° C. for 15 minutes. A 1 ml portion of the final extract was added to 2 ml activated diphenylamine (Sigma Chemical, St. Louis, Mo.) reagent and absorbance at 600 nm was measured after overnight incubation at room temperature. Hydrolyzed calf thymus DNA (Sigma) was used to construct the standard curve. The DNA content was measured as a rough index of the number of cells in the wound chamber, with the realization that cell type and cell cycle status also influence DNA content.
Total glycosaminoglycans (GAGs) were determined using chondroitin sulfate as a standard. A spectrophotometric assay for GAGs was run utilizing a change in absorption spectrum of the dye 1,9- dimethyl methylene blue (Farndale et al. Conn. Tiss. Res. 9, 247-248 (1982)).
Total collagen content was determined as hydroxyproline (an index of collagen content) after hydrolysis of the solubilized granulation tissue in 6N HCl at 110° C. for 24 hours. […]

[2] = test system: eck receptor (p130^eck); assay: p130eck autophosphorylation in LIM 2405 cells; type: cell-based, human; settings: intact LIM 2405 cells, 10-15 min at 37° C.
Procedure: The LIM 2405 colorectal carcinoma cell line (Whitehead et al. Immunol. and Cell Biol. 70, 227 (1992)) was maintained in RPMI 1640 containing 5% FBS, 1 μg/ml insulin, 10 μg/ml hydrocortisone and 10 μM α-thioglycerol, and subpassaged by trypsination and dilution (1:5) into fresh media. Prior to assay 2.5×10^5 LIM 2405 cells were seeded into 6-well dishes (Falcon #3046) and incubated for 24 hr at 37° C. The media was discarded and replaced with serum-free RPMI 1640 containing 0.03% BSA, 1 μg/ml insulin, 10 μg/ml hydrocortisone and 10 μM α-thioglycerol, then incubated for 12-18 hr. In some experiments the cell cultures were labelled with ^32 P-orthophosphate (2 mCi/ml) in phosphate-free RPMI 1640 (Flow) for 2-3 hr prior to treatment. Growth factor stock solutions were prediluted at varying concentrations into 2.0 ml of serum-free media, then warmed to 37° C. Cell cultures were removed from the incubator, and the supernatant media discarded. Treatments were promptly added and the cell cultures incubated at 37° C. for 10-15 min. The cultures were then removed from the incubator, placed on ice, and the culture supernatant aspirated.
The treated cell cultures were chilled to 0° C. then washed once with ice-cold PBS (GIBCO). The residual PBS was aspirated and the cells were lysed by the addition of 1.0 ml of ice-cold RIPA buffer (10 mM sodium phosphate, pH 7.4, 150 mM sodium chloride, 0.1% sodium dodecyl sulfate, 1% NP-40, 1% deoxycholate, 1% Trasylol, 2 mM EDTA, 50 mM sodium fluoride and 100 mM sodium orthovanadate). After a 10 min incubation the lysates were transferred to 1.5 ml tubes and clarified by centrifugation for 30 min at 10,000×g. The clarified lysate supernatants were transferred to new tubes and immunoprecipitated with 1.0 μg/ml of affinity purified rabbit anti-Eck C-terminal domain antibody for 2 hr at 0° C. Immune complexes were adsorbed to Protein-G Sepharose beads (Pharmacia) at 4° C. for 30 min, washed twice with ice-cold RIPA buffer, once with 0.1M Tris-HCl, pH 8.0, containing 0.5M LiCl, and once with RIPA. The resulting immunoprecipitates were solubilized with SDS-PAGE sample buffer and stored for further analysis.
The anti-eck immunoprecipitates from treated and untreated LIM 2405 cell lysates were resolved on 7.5% polyacrylamide gels as previously described (Boyle et al. Meth. Enzymol. 201, 110 (1991)). […] Immune complexes were detected by chemiluminescent exposure (ECL, Amersham) to Kodak X-OMAT X-ray film at room temperature for 0.5-5 min.
Eck receptor immunoprecipitates from ^32 P-labelled LIM 2405 cells were resolved by SDS-PAGE, and the gel dried directly without fixation. After exposure to X-ray film the labelled eck receptor band was isolated and phosphoamino acid content determined as described (Boyle et al. Meth. Enzymol. 201, 110 (1991))

[3] = test system: extracellular domain of the kit receptor; assay: BIAcore binding to surfaces activated with kit receptor extracellular domain
Description: SDS-PAGE analysis of the fractions from this column confirmed that EBP was co-eluted with the receptor binding activity.

[4] = 5 ug per chamber per day x 9 days, harvest day 12, mean ± SEM
[5] = 5 ug per chamber per day x 9 days, harvest day 12, mean ± SEM, listed as rPDGF

Substance: PDGF [reference compound]
- DNA [1, 4]: 356 ± 64 µg
- HYDROXY-PROLINE [1, 4]: 478.4 ± 85.9 µg
- TOTAL GYLCOSAMINO-GLYCANS [1, 4]: 725.2 ± 104.4 µg
- TOTAL PROTEIN [1, 4]: 7.46 ± 1.52 mg
- WET WEIGHT [1, 4]: 417.4 ± 81.8 mg
- DNA [1, 5]: significantly increased
- TOTAL GYLCOSAMINO-GLYCANS [1, 5]: significantly increased
- TOTAL PROTEIN [1, 5]: significantly increased
- WET WEIGHT [1, 5]: significantly increased
- increase in hydroxyproline content over control chambers ([1]; PDGF treated chambers (5 μg per day)): 82%

Substance: EGF: growth factor used to treat LIM 2405 cells as specificity control [reference compound]
- eck receptor phosphorylation [2]: nor does EGF treatment induce eck phosphorylation

Substance: rSCF: the kit ligand [reference compound]
- binding to BIAcore surfaces activated with the extracellular domain of the kit receptor [3]: could bind

Reference: patent publication US5716934A, “Eck receptor ligands” (Amgen Inc., priority 1995, dated 1998)
